Reference: the NIST ThermoML archive (doi:10.1016/j.fluid.2016.03.009)
Numbers after ± are expanded uncertainties.

Settings: 101.33 kPa, Liquid, Vibrating tube method

| Structure (SMILES) | mass density (283.15 K) [kg/m3] | mass density (288.15 K) [kg/m3] | mass density (293.15 K) [kg/m3] | mass density (298.15 K) [kg/m3] | mass density (303.15 K) [kg/m3] | mass density (308.15 K) [kg/m3] | mass density (313.15 K) [kg/m3] | mass density (318.15 K) [kg/m3] | mass density (323.15 K) [kg/m3] | mass density (328.15 K) [kg/m3] | mass density (333.15 K) [kg/m3] | mass density (338.15 K) [kg/m3] | mass density (343.15 K) [kg/m3] | mass density (348.15 K) [kg/m3] | mass density (353.15 K) [kg/m3] | mass density (278.15 K) [kg/m3] |
| --- | --- | --- | --- | --- | --- | --- | --- | --- | --- | --- | --- | --- | --- | --- | --- | --- |
| C[n+]1ccn(CCCCS(=O)(=O)O)c1.O=S(=O)([N-]S(=O)(=O)C(F)(F)F)C(F)(F)F | 1597.92 ± 80 | 1592.96 ± 80 | 1587.85 ± 80 | 1582.58 ± 80 | 1577.87 ± 80 | 1573.18 ± 80 | 1568.52 ± 80 | 1563.87 ± 80 | 1559.23 ± 80 | 1554.6 ± 80 | 1550.01 ± 80 | 1545.56 ± 80 | 1541.12 ± 80 | 1536.68 ± 80 | 1532.23 ± 80 | – |
| C[n+]1ccn(CCCCS(=O)(=O)O)c1.O=S(=O)([O-])O [1-methyl-3-(4-sulfobutyl)-imidazolium hydrogensulfate] | 1450.3 ± 80 | 1447.02 ± 80 | – | 1437.08 ± 80 | 1433.68 ± 80 | – | 1426.76 ± 80 | – | 1420.51 ± 80 | – | 1414.28 ± 80 | – | 1408.07 ± 80 | – | 1401.8 ± 80 | – |
| CC(O)C(=O)[O-].CCn1cc[n+](C)c1 [1-ethyl-3-methylimidazolium lactate] | 1153.47 ± 7.2 | 1149.77 ± 7.2 | 1146.11 ± 7.1 | 1142.46 ± 7.1 | 1138.89 ± 7 | 1135.43 ± 7 | 1131.95 ± 7 | 1128.51 ± 6.9 | 1125.07 ± 6.9 | 1121.67 ± 6.8 | 1118.51 ± 6.8 | 1117.98 ± 6.8 | 1111.66 ± 6.7 | 1108.39 ± 6.7 | 1105.14 ± 6.6 | 1157.45 ± 7.3 |
| CCC[n+]1cccc(C)c1.O=S(=O)([N-]S(=O)(=O)C(F)(F)F)C(F)(F)F | 1462.43 ± 80 | 1457.62 ± 80 | 1452.81 ± 80 | 1448.03 ± 80 | 1443.28 ± 80 | 1438.54 ± 80 | 1433.81 ± 80 | 1429.11 ± 80 | 1424.43 ± 80 | 1419.79 ± 80 | 1415.16 ± 80 | 1409.8 ± 80 | 1405.96 ± 80 | 1401.4 ± 80 | 1396.85 ± 80 | 1467.23 ± 80 |
